In patent US20230310542A1, “EPIGENETIC MODIFIERS TO TREAT RETINAL DEGENERATIONS” (priority 2022, published 2023):

Legend:
rd10 mice retina = assay: RNA-seq of PN24 retina, rd10 mice; assay type: in vivo, mouse
Experimental: RNA was extracted from PN24 retina of WT and rd10 animals treated with saline or GSK from PN9 till PN24. RNA integrity number (RIN) was measured using BioAnalyzer (Agilent Technologies) RNA 6000 Nano Kit to confirm RIN above 7 for each sample. The cDNA libraries were prepared using the Illumina® Stranded mRNA Prep, Ligation kit (Illumina) as per the manufacturer's instructions. Briefly, polyA RNA was purified from 200 ng of total RNA using oligo (dT) beads. The extracted mRNA fraction was subjected to fragmentation, reverse transcription, end repair, 3′— end adenylation, and adaptor ligation, followed by PCR amplification and SPRI bead purification (Beckman Coulter). The unique dual index sequences (IDT® for Illumina® RNA UD Indexes Set A, Ligation, Illumina) were incorporated in the adaptors for multiplexed high-throughput sequencing. The final product was assessed for its size distribution and concentration using BioAnalyzer High Sensitivity DNA Kit (Agilent Technologies). The libraries were pooled and diluted to 3 nM using 10 mM Tris-HCl, pH 8.5, and then denatured using the Illumina protocol. The denatured libraries were loaded onto an S1 flow cell on an Illumina NovaSeq 6000 (Illumina) and run for 2×53 cycles according to the manufacturer's instructions. De-multiplexed and adapter-trimmed sequencing reads were generated using Illumina bcl2fastq (released version 2.20.0) allowing no mismatches in the index read. BBDuk was used to trim/filter low-quality sequences using “qtrim=lr trimq=10 maq=10” option. Next, alignment of the filtered reads to the mouse reference genome (mouse Ensembl release 67 (GRCm37/NCBIM37/mm9)) was done using HISAT2 (version 2.1.0) applying --no-mixed and --no-discordant options. Read counts were calculated using HTSeq by supplementing Ensembl gene annotation (release 67: “Mus_musculus.Ensembl.NCBIM37.67.gtf”). The edgeR R package was used to fit the read counts to the negative binomial model along with the generalized linear model (GLM) and differentially expressed genes were determined by the likelihood ratio test method implemented in the edgeR. […] The ggplot2 R package was used for generating heatmaps. Raw counts and differential expression analysis generated during this study are available at GEO Submission GSE169527.
The Database for Annotation, Visualization, and Integrated Discovery (DAVID) was used for GO functional analysis.

WT mice retina = assay: RNA-seq of PN24 retina, WT mice; assay type: in vivo, mouse; conditions: GSK PN9 till PN24 vs saline; FDR<0.05, fold change >2 or <0.5
Experimental: RNA was extracted from PN24 retina of WT and rd10 animals treated with saline or GSK from PN9 till PN24. RNA integrity number (RIN) was measured using BioAnalyzer (Agilent Technologies) RNA 6000 Nano Kit to confirm RIN above 7 for each sample. The cDNA libraries were prepared using the Illumina® Stranded mRNA Prep, Ligation kit (Illumina) as per the manufacturer's instructions. Briefly, polyA RNA was purified from 200 ng of total RNA using oligo (dT) beads. The extracted mRNA fraction was subjected to fragmentation, reverse transcription, end repair, 3′— end adenylation, and adaptor ligation, followed by PCR amplification and SPRI bead purification (Beckman Coulter). […] The final product was assessed for its size distribution and concentration using BioAnalyzer High Sensitivity DNA Kit (Agilent Technologies). […] De-multiplexed and adapter-trimmed sequencing reads were generated using Illumina bcl2fastq (released version 2.20.0) allowing no mismatches in the index read. […] Next, alignment of the filtered reads to the mouse reference genome (mouse Ensembl release 67 (GRCm37/NCBIM37/mm9)) was done using HISAT2 (version 2.1.0) applying --no-mixed and --no-discordant options. Read counts were calculated using HTSeq by supplementing Ensembl gene annotation (release 67: “Mus_musculus.Ensembl.NCBIM37.67.gtf”). […]

[1] = GSK PN9 till PN24 vs saline, FDR<0.05, fold change >2 or <0.5

What does the source list for `O=C(O)c1ccc(CN2CCC(CN[C@@H]3C[C@H]3c3ccccc3)CC2)cc1` [GSK, GSK2879552]?
number of genes downregulated (rd10 mice retina; [1]): 369 genes; number of genes upregulated (rd10 mice retina; [1]): 719 genes; genes simultaneously upregulated in rd10 and WT mice retina (rd10 mice retina; GSK, p<0.05, fold change >1.75 or <0.8): approximately 150 genes; expression of genes specific for rod photoreceptors (rd10 mice retina; rd10+GSK retina): returned to normal expression levels; IPA canonical pathways, upregulated (rd10 mice retina; rd10+GSK vs rd10): major upregulated pathway is the phototransduction pathway; IPA canonical pathways, down regulated (rd10 mice retina; rd10+GSK vs rd10, next 4 most important pathways): down regulated pathways were all related to neuroinflammation; expression of resident microglia markers (rd10 mice retina; rd10+GSK, Atp6v0d2, Mcoln3, Cd5l, Ctsd, C1qa, Fcrls, Hexb, Gpr34, Junb, Pclaf, Birc5): went back to normal levels of expression; expression of markers of infiltrating immune cells (rd10 mice retina; rd10+GSK, H2-Aa, cd74, H2-Ab1, H2-Eb1, Cx3cr1 and others): returned to normal levels of expression; expression of amacrine cell markers Clrn1 and Efemp1 (rd10 mice retina; rd10 under GSK inhibition): down-regulated; expression of cell death genes Capn9, Casp1, 12, AifI (rd10 mice retina; rd10 under GSK inhibition): downregulated; expression of Gfap (rd10 mice retina; rd10 under GSK inhibition, did not reach threshold conditions): decreased; number of genes downregulated (WT mice retina): 13 genes; number of genes upregulated (WT mice retina): 77 genes
